US6077840A, “Tetrahydrobenzindolone derivatives” (Meiji Seika Kaisha, Ltd., priority 1996, dated 2000)

System: not listed separately
Assay: Test on Toxicity upon Continuous Administration
Format: in vivo
Conditions: 60 mg/kg, subcutaneous, 16 week-old male SD rats (five)
Procedure: A homogeneous suspension of the compound, according to the present invention, prepared in Example 8 in a 0.2% aqueous methyl cellulose solution was subcutaneously administered to 16 week-old male SD rats (five rats). The dose of the compound prepared in Example 8 was 60 mg/kg.

Row | SMILES | special symptoms | survival of rats
1 | CCC(=O)O[C@H]1[C@H](OC(=O)CC)C=C2C=C3C(=C(C)C(=O)N3C)C[C@]2(C)[C@H]1C [Example 8, (4aR,5R,6R,7R)-6,7-Dipropionyloxy-4a,5,6,7-tetrahydro-1,3,4a,5-tetramethylbenz[f]indol-2(4H)-one] | without no special symptom | All the rats remained survived

Biological target: T1, progesterone receptor (Sus scrofa, UniProt D0EWS6)
T1 construct: thereby preparing a cytosol containing progesterone receptor; from tissue; host or cells: hog uterus, cytosol (100,000×g supernatant)
T1 sequence (D0EWS6 1-934): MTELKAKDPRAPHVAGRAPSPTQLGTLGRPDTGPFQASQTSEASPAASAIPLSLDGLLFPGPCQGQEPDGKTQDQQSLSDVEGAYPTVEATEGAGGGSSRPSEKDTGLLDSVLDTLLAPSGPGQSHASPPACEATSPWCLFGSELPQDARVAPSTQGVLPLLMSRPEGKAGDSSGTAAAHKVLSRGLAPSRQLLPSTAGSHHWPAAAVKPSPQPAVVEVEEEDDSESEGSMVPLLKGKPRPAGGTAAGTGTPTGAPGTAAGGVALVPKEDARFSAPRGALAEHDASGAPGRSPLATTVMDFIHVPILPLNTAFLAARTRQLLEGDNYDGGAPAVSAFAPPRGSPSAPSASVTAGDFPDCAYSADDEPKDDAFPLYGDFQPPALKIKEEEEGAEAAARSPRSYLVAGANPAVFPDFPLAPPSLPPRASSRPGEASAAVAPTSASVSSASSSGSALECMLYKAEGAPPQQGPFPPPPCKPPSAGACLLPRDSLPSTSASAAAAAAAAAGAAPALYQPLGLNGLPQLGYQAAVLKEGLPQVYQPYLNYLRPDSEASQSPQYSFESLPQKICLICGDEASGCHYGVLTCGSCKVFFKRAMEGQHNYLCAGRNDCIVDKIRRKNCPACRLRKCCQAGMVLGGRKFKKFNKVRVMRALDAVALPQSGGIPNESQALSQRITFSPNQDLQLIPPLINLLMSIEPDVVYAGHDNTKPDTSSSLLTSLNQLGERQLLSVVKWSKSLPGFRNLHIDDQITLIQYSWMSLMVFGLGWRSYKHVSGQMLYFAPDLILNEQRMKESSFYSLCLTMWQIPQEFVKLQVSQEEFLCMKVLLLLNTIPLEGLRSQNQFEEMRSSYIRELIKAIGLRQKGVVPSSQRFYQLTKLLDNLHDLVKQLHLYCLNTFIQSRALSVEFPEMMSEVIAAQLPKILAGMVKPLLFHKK
Assay: progesterone receptor binding inhibition ([^3 H]-progesterone, hog uterus cytosol)
Parameters: species or system hogs
Conditions: [^3 H]-progesterone ligand, 60 min at 4° C., read-out: Inhibitory activity against progesterone receptor binding (IC50)
Procedure: Uteri taken from hogs in 5 mM phosphate buffer were disrupted using Polytron homogenizer, and the resulting solution was centrifuged (100,000×g, 30 min) to separate the supernatant, thereby preparing a cytosol containing progesterone receptor. […] Then, 100 μl of a 0.5% activated carbon solution was added to the reaction solution, and the mixture was allowed to stand for 10 min and then centrifuged (2,000×g, 10 min). The radioactivity of the supernatant was measured with a liquid scintillation counter.
Separately, the radioactivity was measured in the same manner as described above, except that no test drug was added. Further, the radioactivity was measured in the same manner as described above, except that 10 μl of Medroxyprogesterone Acetate (MPA) (10 μg/ml) was added instead of the test drug. The radioactivity with no test drug added was defined as the amount of total binding of [^3 H]-progesterone to the cytosol, and the radioactivity with MPA added was defined as the amount of non-specific binding. The inhibition ratio was calculated from these measured values by the following equation to determine the binding inhibitory activity (IC50).
Inhibition ratio (%)= [formula]

Row | SMILES | IC50
2 | CCC(=O)O[C@H]1[C@H](OC(C)=O)C=C2C=C3C(=C(C)C(=O)N3C)C[C@]2(C)[C@H]1C [Example 3, (4aR,5R,6R,7R)-7-Acetoxy-6-propionyloxy-4a,5,6,7-tetrahydro-1,3,4a,5-tetramethylbenz[f]indol-2(4H)-one] | 28 nM
3 | CC(=O)O[C@@H]1C=C2C=C3C(=C(C)C(=O)N3C)C[C@]2(C)[C@@H](C)[C@H]1OC(=O)c1ccco1 [Example 4, (4aR,5R,6R,7R)-7-Acetoxy-6-(2-furancarbonyloxy)-4a,5,6,7-tetrahydro-1,3,4a,5-tetramethylbenz[f]indol-2(4H)-one] | 32 nM
4 | CO[C@@H]1C=C2C=C3C(=C(C)C(=O)N3C)C[C@]2(C)[C@@H](C)[C@H]1OC(C)=O [Example 25, (4aR,5R,6R,7R)-6-Acetoxy-7-methoxy-4a,5,6,7-tetrahydro-1,3,4a,5-tetramethylbenz[f]indol-2(4H)-one] | 25 nM
5 | CCC(=O)O[C@H]1[C@H](OC)C=C2C=C3C(=C(C)C(=O)N3C)C[C@]2(C)[C@H]1C [Example 26, (4aR,5R,6R,7R)-7-Methoxy-6-propionyloxy-4a,5,6,7-tetrahydro-1,3,4a,5-tetramethylbenz[f]indol-2(4H)-one] | 17 nM
6 | CO[C@@H]1C=C2C=C3C(=C(C)C(=O)N3C)C[C@]2(C)[C@@H](C)[C@H]1OC(=O)c1cccs1 [Example 31, (4aR,5R,6R,7R)-7-Methoxy-4a,5,6,7-tetrahydro-1,3,4a,5-tetramethyl-6-(2-thiophenecarbonyloxy)benz[f]indol-2(4H)-one] | 47 nM
7 | CO[C@@H]1C=C2C=C3C(=C(C)C(=O)N3C)C[C@]2(C)[C@@H](C)[C@H]1OC(=O)c1ccco1 [Example 32, (4aR,5R,6R,7R)-6-(2-Furancarbonyloxy)-7-methoxy-4a,5,6,7-tetrahydro-1,3,4a,5-tetramethylbenz[f]indol-2(4H)-one] | 27 nM
8 | CO[C@H]1[C@H](OC)C=C2C=C3C(=C(C)C(=O)N3C)C[C@]2(C)[C@H]1C [Example 34, (4aR,5R,6R,7R)-6,7-Dimethoxy-4a,5,6,7-tetrahydro-1,3,4a,5-tetramethylbenz[f]indol-2(4H)-one] | 42 nM
9 | CCO[C@H]1[C@H](OC)C=C2C=C3C(=C(C)C(=O)N3C)C[C@]2(C)[C@H]1C [Example 35, (4aR,5R,6R,7R)-6-Ethoxy-7-methoxy-4a,5,6,7-tetrahydro-1,3,4a,5-tetramethylbenz[f]indol-2(4H)-one] | 36 nM
10 | CCCO[C@H]1[C@H](OC)C=C2C=C3C(=C(C)C(=O)N3C)C[C@]2(C)[C@H]1C [Example 36, (4aR,5R,6R,7R)-7-Methoxy-6-propoxy-4a,5,6,7-tetrahydro-1,3,4a,5-tetramethylbenz[f]indol-2(4H)-one] | 51 nM
11 | C=CCO[C@H]1[C@H](OC)C=C2C=C3C(=C(C)C(=O)N3C)C[C@]2(C)[C@H]1C [Example 41, (4aR,5R,6R,7R)-7-Methoxy-6-(2-propenyloxy)-4a,5,6,7-tetrahydro-1,3,4a,5-tetramethylbenz[f]indol-2(4H)-one] | 44 nM
12 | CCC(=O)O[C@H]1[C@H](SC)C=C2C=C3C(=C(C)C(=O)N3C)C[C@]2(C)[C@H]1C [Example 97, (4aR,5R,6R,7R)-7-Methylthio-6-propionyloxy-4a,5,6,7-tetrahydro-1,3,4a,5-tetramethylbenz[f]indol-2(4H)-one] | 64 nM
13 | CS[C@@H]1C=C2C=C3C(=C(C)C(=O)N3C)C[C@]2(C)[C@@H](C)[C@H]1OC(=O)n1ccnc1 [Example 99, (4aR,5R,6R,7R)-6-(Imidazol-1-ylcarbonyloxy)-7-methylthio-4a,5,6,7-tetrahydro-1,3,4a,5-tetramethylbenz[f]indol-2(4H)-one] | 66 nM
14 | CCS[C@@H]1C=C2C=C3C(=C(C)C(=O)N3C)C[C@]2(C)[C@@H](C)[C@H]1O [Example 100, (4aR,5R,6R,7R)-7-Ethylthio-6-hydroxy-4a,5,6,7-tetrahydro-1,3,4a,5-tetramethrlbenz[f]indol-2(4H)-one] | 119 nM
15 | CCS[C@@H]1C=C2C=C3C(=C(C)C(=O)N3C)C[C@]2(C)[C@@H](C)[C@H]1OC(=O)CC [Example 101, (4aR,5R,6R,7R)-7-Ethylthio-6-propionyloxy-4a,5,6,7-tetrahydro-1,3,4a,5-tetramethylbenz[f]indol-2(4H)-one] | 164 nM
16 | CCS[C@@H]1C=C2C=C3C(=C(C)C(=O)N3C)C[C@]2(C)[C@@H](C)[C@H]1OC(=O)n1ccnc1 [Example 106, (4aR,5R,6R,7R)-7-Ethylthio-6-(imidazol-1-ylcarbonyloxy)-4a,5,6,7-tetrahydro-1,3,4a,5-tetramethylbenz[f]indol-2(4H)-one] | 137 nM
17 | CCCNC(=O)O[C@H]1[C@H](SCC)C=C2C=C3C(=C(C)C(=O)N3C)C[C@]2(C)[C@H]1C [Example 107, (4aR,5R,6R,7R)-7-Ethylthio-6-propylcarbamoyloxy-4a,5,6,7-tetrahydro-1,3,4a,5-tetramethylbenz[f]indol-2(4H)-one] | 156 nM
18 | CCS[C@@H]1C=C2C=C3C(=C(C)C(=O)N3C)C[C@]2(C)[C@@H](C)[C@H]1OC(=O)N1CCCC1 [Example 108, (4aR,5R,6R,7R)-7-Ethylthio-6-(pyrrolidin-1-ylcarbonyloxy)-4a,5,6,7-tetrahydro-1,3,4a,5-tetramethylbenz[f]indol-2(4H)-one] | 155 nM
19 | CCC(=O)O[C@H]1CC=C2C=C3C(=C(C)C(=O)N3C)C[C@]2(C)[C@H]1C [Example 113, (4aR,5R,6S)-6-Propionyloxy-4a,5,6,7-tetrahydro-1,3,4a,5-tetramethylbenz[f]indol-2(4H)-one] | 99 nM
20 | CC1=C2C[C@@]3(C)C(=CC[C@H](OC(=O)n4ccnc4)[C@@H]3C)C=C2N(C)C1=O [Example 115, (4aR,5R,6S)-6-(Imidazol-1-ylcarbonyloxy)-4a,5,6,7-tetrahydro-1,3,4a,5-tetramethylbenz[f]indol-2(4H)-one] | 22 nM
21 | CCCNC(=O)O[C@H]1CC=C2C=C3C(=C(C)C(=O)N3C)C[C@]2(C)[C@H]1C [Example 116, (4aR,5R,6S)-6-Propylcarbamoyloxy-4a,5,6,7-tetrahydro-1,3,4a,5-tetramethylbenz[f]indol-2(4H)-one] | 19 nM
22 | CC1=C2C[C@@]3(C)C(=CC[C@H](OC(=O)N4CCCC4)[C@@H]3C)C=C2N(C)C1=O [Example 117, (4aR,5R,6S)-6-(Pyrrolidin-1-ylcarbonyloxy)-4a,5,6,7-tetrahydro-1,3,4a,5-tetramethylbenz[f]indol-2(4H)-one] | 31 nM
